Measured values: publication PMC11945486, “TAS1R2/TAS1R3 Single-Nucleotide Polymorphisms Affect Sweet Taste Receptor Activation by Sweeteners: The SWEET Project” (Nutrients, 2025)
No end group written: not given here.

T1: human TAS1R2-I486V/TAS1R3-WT (Homo sapiens, UniProt Q7RTX0+Q8TE23, I486V)
T1 construct: expressed in transfected cells; host or cells: HEK293T-Gα16gust44
T1 sequence (Q8TE23 20-839 I486V): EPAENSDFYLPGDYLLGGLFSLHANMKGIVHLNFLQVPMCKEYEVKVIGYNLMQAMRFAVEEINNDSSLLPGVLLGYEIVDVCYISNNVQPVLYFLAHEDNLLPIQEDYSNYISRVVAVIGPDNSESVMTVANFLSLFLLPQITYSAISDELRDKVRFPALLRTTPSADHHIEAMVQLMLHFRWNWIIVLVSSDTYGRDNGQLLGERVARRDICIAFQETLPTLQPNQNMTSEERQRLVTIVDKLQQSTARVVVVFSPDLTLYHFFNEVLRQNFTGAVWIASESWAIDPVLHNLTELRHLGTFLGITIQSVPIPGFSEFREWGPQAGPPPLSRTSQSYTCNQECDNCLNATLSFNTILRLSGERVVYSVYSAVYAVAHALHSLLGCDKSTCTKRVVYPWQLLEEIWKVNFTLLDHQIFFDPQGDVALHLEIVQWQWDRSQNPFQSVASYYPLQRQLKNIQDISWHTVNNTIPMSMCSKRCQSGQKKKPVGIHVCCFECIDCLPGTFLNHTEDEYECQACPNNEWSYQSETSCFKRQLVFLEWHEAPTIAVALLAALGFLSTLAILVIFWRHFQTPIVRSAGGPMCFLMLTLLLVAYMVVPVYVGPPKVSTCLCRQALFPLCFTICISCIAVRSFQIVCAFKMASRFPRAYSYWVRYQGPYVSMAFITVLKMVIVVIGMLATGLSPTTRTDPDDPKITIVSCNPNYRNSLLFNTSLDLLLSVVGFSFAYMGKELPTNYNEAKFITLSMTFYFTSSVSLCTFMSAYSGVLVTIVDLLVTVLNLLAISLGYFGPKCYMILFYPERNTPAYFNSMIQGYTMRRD
T1 sequence (Q7RTX0 21-852): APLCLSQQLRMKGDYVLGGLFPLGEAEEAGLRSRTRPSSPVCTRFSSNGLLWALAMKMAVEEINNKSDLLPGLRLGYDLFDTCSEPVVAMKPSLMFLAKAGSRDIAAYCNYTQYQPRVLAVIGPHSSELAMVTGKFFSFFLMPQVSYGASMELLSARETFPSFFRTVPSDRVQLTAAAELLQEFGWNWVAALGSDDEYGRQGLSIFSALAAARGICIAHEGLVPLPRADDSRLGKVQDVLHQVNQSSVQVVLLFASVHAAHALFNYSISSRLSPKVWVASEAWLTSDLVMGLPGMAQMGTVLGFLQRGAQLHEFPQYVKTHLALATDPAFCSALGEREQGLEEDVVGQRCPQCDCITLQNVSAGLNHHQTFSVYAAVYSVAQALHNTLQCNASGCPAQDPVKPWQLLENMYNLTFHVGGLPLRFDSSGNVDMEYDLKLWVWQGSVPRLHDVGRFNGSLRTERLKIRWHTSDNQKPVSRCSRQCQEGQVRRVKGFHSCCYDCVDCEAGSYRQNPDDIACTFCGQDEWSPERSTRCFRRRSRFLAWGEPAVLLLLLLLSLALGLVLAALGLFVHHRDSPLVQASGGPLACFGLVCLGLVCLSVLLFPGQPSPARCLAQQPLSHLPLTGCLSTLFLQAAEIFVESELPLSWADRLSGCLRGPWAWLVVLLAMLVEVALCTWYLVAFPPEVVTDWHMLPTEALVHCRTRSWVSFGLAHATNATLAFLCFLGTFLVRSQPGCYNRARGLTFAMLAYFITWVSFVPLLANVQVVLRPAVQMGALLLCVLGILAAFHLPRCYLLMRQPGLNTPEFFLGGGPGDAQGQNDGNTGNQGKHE


Biological target: T1, human TAS1R2-I486V/TAS1R3-WT
Test: Calcium mobilisation assay, TAS1R2 variant I486V with TAS1R3-WT
Type: cell-based
Details: for Max ΔF/F0: maximal signal amplitude
Description: The coding sequences for TAS1R2 and TAS1R3 were commercially synthesised, and the human codon was optimised for expression in human cells. The coding sequences of human TAS1R2 and TAS1R3 were subcloned and inserted into the mammalian expression vectors pcDNA6/myc-HisA and pcDNA4/myc-HisA (Invitrogen; Thermo Fisher Scientific; Illkirch, France) between the EcoRI and NotI restriction sites, generating the plasmids pcDNA6-TAS1R2 and pcDNA4-TAS1R3, respectively. To increase protein expression in mammalian cells, an upstream start codon was used, which was a sequence called MAX, corresponding to the QBI SP163 element also described in pcDNA4-HisMax (Invitrogen; Thermo Fisher Scientific; Illkirch, France). To measure the expression level of the receptor by immunohistochemistry, we used the FLAG sequence ([…]) in the C-terminal position, which encodes the FLAG tag epitope. SNP variants of TAS1R2 and TAS1R3 were constructed based on […], respectively, using site-directed mutagenesis (Genewiz; Leipzig, Germany).
The HEK293T cells were kindly provided by Jay P. Slack (Givaudan Flavors Corporation; Cincinnati, OH, USA). HEK293T cells stably transfected with Gα16gust44 [43, 67] were seeded in poly-D-lysine-coated clear-bottom black 96-well plates (0.35 × 10^5 cells/well) in high-glucose DMEM supplemented with 2 mM GlutaMAX, 10% dialysed foetal bovine serum with penicillin/streptomycin and G418 (400 μg/mL) at 37 °C and 6.3% CO2 in a humidified atmosphere as previously reported. […] As a negative control, HEK293T cells were mock-transfected with the empty expression vector. After a further 24 h of incubation, the HEK293T cells were washed with C1 buffer (130 mM NaCl, 5 mM KCl, 10 mM HEPES pH 7.4 and 2 mM CaCl2). The 96-well plates containing the cells were then stimulated with sweet-tasting compounds. […] Different concentration ranges were tested depending on the sweet compound injected. The Ca^2+ changes were expressed as fractional changes in fluorescent light intensity: ΔF/F = (F − F0)/F0, where F was the fluorescent light intensity at each point, and F0 was the value of emitted fluorescent light prior to stimulus application. To calculate dose–response relationships, the changes in fluorescence upon stimulus application were averaged, mock-subtracted and baseline-corrected. The dose–response data obtained were adjusted using a 4-parameter logistic equation. The half-maximal effective concentrations (EC50 values) and maximal signal amplitudes were calculated using SigmaPlot software (version 15.0) (Systat Software; San Jose, CA, USA).
For in vitro calcium mobilisation assay performed on hTAS1R2-SNPs, hTAS1R3-SNPs and mTAS1R3-I60T, 6 to 7 concentrations were tested for each sweet compound, plus buffer alone. All concentration–receptor combinations were measured in duplicate, and each experiment was repeated at least 4 times (8 wells/concentration). Results were expressed for each concentration as ΔF/F mean ± SEM and represented as dose–response curves.

| Molecule | EC50 [µM] | R1 = Variant EC50/WT EC50 | Max ΔF/F0 |
| --- | --- | --- | --- |
| CC1=CC(=O)NS(=O)(=O)O1 [Acesulfame K, acesulfame K] | 778 ± 108 | 1.1 | 0.46 ± 0.03 |
| O=S(=O)(O)NC1CCCCC1 [Cyclamate, cyclamate] | 1880 ± 36 | – | – |
| C[C@H](CC[C@@H](O[C@@H]1O[C@H](CO[C@@H]2O[C@H](CO)[C@@H](O)[C@H](O)[C@H]2O)[C@@H](O)[C@H](O)[C@H]1O[C@@H]1O[C@H](CO)[C@@H](O)[C@H](O)[C@H]1O)C(C)(C)O)[C@H]1CC[C@@]2(C)[C@@H]3CC=C4[C@@H](CC[C@H](O[C@@H]5O[C@H](CO[C@@H]6O[C@H](CO)[C@@H](O)[C@H](O)[C@H]6O)[C@@H](O)[C@H](O)[C@H]5O)C4(C)C)[C@]3(C)[C@H](O)C[C@]12C [Mogroside V, mogroside V] | 20.1 ± 0.9 | 1.2 | 1.39 ± 0.02 |
| COc1ccc(CCC(=O)c2c(O)cc(O[C@@H]3O[C@H](CO)[C@@H](O)[C@H](O)[C@H]3O[C@@H]3O[C@@H](C)[C@H](O)[C@@H](O)[C@H]3O)cc2O)cc1O [NHDC, neohesperidin dihydrochalcone] | 92.6 ± 5.2 | 1.2 | 0.92 ± 0.02 |
| COC(=O)[C@H](Cc1ccccc1)NC(=O)[C@H](CC(=O)O)NCCC(C)(C)C [Neotame] | 0.71 ± 0.06 | 0.8 | 0.61 ± 0.01 |
| C=C(C)[C@@H]1CC=C(/C=N/O)CC1 [Perillartine, perillartine] | 17.7 ± 1.2 | 1.0 | 1.49 ± 0.04 |
| C=C1C[C@@]23CC[C@H]4[C@@](C)(CCC[C@@]4(C)C(=O)O[C@@H]4O[C@H](CO)[C@@H](O)[C@H](O[C@@H]5O[C@H](CO)[C@@H](O)[C@H](O)[C@H]5O)[C@H]4O[C@@H]4O[C@H](CO)[C@@H](O)[C@H](O)[C@H]4O)[C@@H]2CC[C@]1(O[C@@H]1O[C@H](CO)[C@@H](O)[C@H](O[C@@H]2O[C@H](CO)[C@@H](O)[C@H](O)[C@H]2O)[C@H]1O[C@@H]1O[C@H](CO)[C@@H](O)[C@H](O)[C@H]1O)C3 [Rebaudioside M, rebaudioside M] | 17.6 ± 0.6 | 1.0 | 1.20 ± 0.01 |
| OC[C@H]1O[C@H](O[C@]2(CCl)O[C@H](CCl)[C@@H](O)[C@@H]2O)[C@H](O)[C@@H](O)[C@H]1Cl [Sucralose] | 54 ± 5 | 0.6 | 0.69 ± 0.02 |
| brazzein (QDKCKKVYENYPVSKCQLANQCNYDCKLDKHARSGECFYDEKRNLQCICDYCEY; ends and bridges not checked; cysteine pairing not given here; UniProt P56552 1-54, looked up) [sweet-tasting protein obtained by recombinant production using the yeast Pichia pastoris] | – | 1.1 | 1.19 ± 0.03 |
| thaumatin | – | 1.4 | 1.21 ± 0.02 |
| thaumatin (protein, Eight disulfides, sweet-tasting plant protein, E957) ATFEIVNRCSYTVWAAASKGDAALDAGGRQLNSGESWTINVEPGTKGGKIWARTDCYFDDSGSGICKTGDCGGLLRCKRFGRPPTTLAEFSLNQYGKDYIDISNIKGFNVPMDFSPTTRGCRGVRCAADIVGQCPAKLKAPGGGCNDACTVFQTSEYCCTTGKCGPTEYSRFFKRLCPDAFSYVLDKPTTVTCPGSSNYRVTFCPTA | 10.5 ± 0.3 | – | – |
